Measurements published in patent US20100278853A1, “C[…] V3 LOOP PEPTIDES AS NOVEL IMMUNOGENS AND RECEPTOR ANTAGONISTS” (YEDA RESEARCH AND DEVELOPMENT CO., LTD., priority 2003, published 2010).

Assays:
[1] = biological target: 447Fv; test: Fluorescence quenching of 447Fv upon titration with the peptide; design: species or system human; details: read-out: dissociation constant / binding affinity for 447Fv
Experimental: The R5A-M1 peptide binds 447Fv with a dissociation constant of 10 nM as determined by fluorescence quenching of 447F upon titration with the peptide, so is within one order of magnitude of the binding affinity of the V3 peptide (˜1 nM).

[2] = tested on: R5 and X4 tropic virus strains; details: against both R5 and X4 tropic virus strains; cited from earlier work
[3] = tested on: 447; test: Binding affinity of V3 peptides to mAb 447 (method not described); design: species or system human; details: relative to affinity of 447 for V3MN peptide

In the case of CRKSIHC—GPGRCFYTTGC [R5A-M1], the Kd [1] is reported as 10 nM.

For “α-defensin: low molecular weight granulocyte protein, pdb code 1dfn”, the anti-HIV activity [2] is listed as “anti-HIV activity”.

With “TRKSIRIQRGPGRAFVTIGK [V3IIIB, 310-329 gp120IIIB V3 loop peptide expressed in E. coli]” the “association constant with 447 compared with the corresponding V3MN peptide” value [3] was “one order of magnitude lower”.
